Data: US20260355184A1, “SMALL MOLECULE DEGRADERS OF HIV-1 TAT PROTEIN” (priority 2022, published 2026)
pIC50: −log10 of the molar value. Where two headings read alike, the source gives them in different places.

Legend:
HIV NL4.3 strain = test: HIV infectivity assay, reporter cell line HeLa-CD4-LTR-LacZ, β-Gal activity (Tat protein inhibition); type: cell-based, HIV-1 (NL4.3); conditions: Human immunodeficiency virus 1, read-out: Infectivity IC50, HeLa-CD4-LTR-LacZ
Method: (§1) Next, the activity of these leads against HIV infection was evaluated using the reporter cell line HeLa-CD4-LTR-LacZ, which stably expresses the β-galactosidase (β-Gal) gene under the control of the HIV 5′ LTR. The HIV NL4.3 strain was used for these studies and β-Gal activity was measured 72 hrs post infection (FIG. 3A). Cytotoxicity assays using Cell-Titer-Glo were performed in parallel to assess cell viability (FIG. 3A). […] Their anti-HIV activity was further assessed in acute replication of Jurkat T cells with the NL4.3 strain (FIG. 3A). […] These OM10.1 cells contain a single integrated wild-type provirus, while ACH-2 cells contain a single integrated provirus with a TAR mutation C37T, defective Tat-TAR feedback loop (FIG. 3B).

[1] = Cytotoxicity assay, Cell-Titer-Glo, HeLa-CD4-LTR-LacZ; conditions: human, hela-cd4-ltr-lacz cells, Infectivity CC50, HeLa-CD4-LTR-LacZ
Method: as §1

| SMILES | pIC50 (HIV NL4.3 strain; analogs of TT-44863 (Table 2)) | CC50 ([1]; analogs of TT-44863 (Table 2)) [µM] | pIC50 (HIV NL4.3 strain; analogs of TT-44881 (Table 1)) | CC50 ([1]; analogs of TT-44881 (Table 1)) [µM] | also measured |
| --- | --- | --- | --- | --- | --- |
| CCN(CC(=O)Nc1cc(C(F)(F)F)ccc1OCCOC)C(=O)Cc1ccccc1 [compound 45172] | ~4.10 | ~80 |  |  |  |
| O=C(NCCCN1CCCC1=O)c1ccn(-c2ccccc2)n1 [compound 45732] |  |  | < 4.00 | > 100 |  |
| CCOc1ccccc1NC(=O)Cn1c(C)cc(COC)c(C#N)c1=O [compound 46602] | < 4.00 | > 100 |  |  |  |
| CCOc1ccccc1NC(=O)Cn1cc(C(F)(F)F)cc(Cl)c1=O [compound 46604] | < 4.00 | > 100 |  |  |  |
| COc1ccccc1NC(=O)Cn1cc(C(F)(F)F)cc(Cl)c1=O [compound 46605] | < 4.00 | > 100 |  |  |  |
| O=C(c1nn(-c2ccccc2)c2c1CCC2)N1CCCC1 [compound 46607] |  |  | < 4.00 | > 100 |  |
| O=C(NCCCn1ccnc1)C(c1ccccc1)c1ccccc1 [compound 46608] |  |  |  |  | pIC50 (HIV NL4.3 strain; analogs of TT-44856 (Table 3)): 5.00 to 6.00; CC50 ([1]; analogs of TT-44856 (Table 3)): > 100 µM |
| O=C(Cn1cc(C(F)(F)F)cc(Cl)c1=O)Nc1cccc2c1OCCO2 [compound 46615] | < 4.00 | > 100 |  |  |  |
| COCCOc1ccccc1NC(=O)Cn1cc(C(F)(F)F)cc(Cl)c1=O [compound 46624] | < 4.00 | > 100 |  |  |  |
| COCCOc1ccccc1NC(=O)Cn1cccc(Cl)c1=O [compound 46631] | < 4.00 | > 100 |  |  |  |
| COc1ccccc1CNC(=O)Cn1cc(C(F)(F)F)cc(Cl)c1=O [compound 46688] | < 4.00 | > 100 |  |  |  |
| COc1ccc(C)cc1NC(=O)Cn1cc(C(F)(F)F)cc(Cl)c1=O [compound 46689] | < 4.00 | > 100 |  |  |  |
| COCCOc1ccc(C(F)(F)F)cc1NC(=O)Cn1cccc(Cl)c1=O [compound 46704] | < 4.00 | > 100 |  |  |  |
| O=C(NCCCN1CCCC1=O)c1nn(-c2ccccc2)c2ccccc12 [compound 46715] |  |  | 4.00 to 4.30 | > 100 |  |
| O=C(NCCCn1ccnc1)c1n[nH]c2c1CCC2 [compound 46726] |  |  | < 4.00 | > 100 |  |
| O=C(NCCCN1CCCC1=O)c1n[nH]c2c1CCC2 [compound 46727] |  |  | < 4.00 | > 100 |  |
| COc1ccccc1CNC(=O)Cn1cccc(Cl)c1=O [compound 46747] | < 4.00 | > 100 |  |  |  |
| O=C(Cn1cc(C(F)(F)F)cc(Cl)c1=O)Nc1cccc(C(F)(F)F)c1 [compound 46748] | < 4.00 | > 100 |  |  |  |
| O=C(NCCCN1CCCC1=O)c1cn(-c2ccccc2)c2ncccc12 [compound 46751] |  |  | < 4.00 | > 100 |  |
| O=C(NCCCN1CCCC1=O)c1nn(-c2ccccc2)c2ncccc12 [compound 46752] |  |  | < 4.00 | > 100 |  |
| COCCOc1ccc(C(F)(F)F)cc1NC(=O)Cn1cccc(F)c1=O [compound 46762] | < 4.00 | > 100 |  |  |  |
| COc1ccc(C(F)(F)F)cc1NC(=O)Cn1cccc(Cl)c1=O [compound 46763] | 4.00 to 4.30 | > 100 |  |  |  |
| COc1ccc(C(F)(F)F)cc1NC(=O)Cn1cccc(F)c1=O [compound 46765] | < 4.00 | > 100 |  |  |  |
| COc1cc(C(F)(F)F)ccc1NC(=O)Cn1cc(C(F)(F)F)cc(Cl)c1=O [compound 46808] | 4.52 to 6.00 | > 100 |  |  |  |
| COc1ccc(C(F)(F)F)cc1NC(=O)Cn1cc(C)cc(Cl)c1=O [compound 46809] | 5.00 to 6.00 | > 100 |  |  |  |
| O=C(NCCCN1CCCC1=O)c1nn(-c2ccccc2)c2c1CCCC2 [compound 46819] |  |  | < 4.30 | > 50 |  |
| O=C(NCCCN1CCCC1=O)c1nn(-c2ccccc2)c2ccc(F)cc12 [compound 46820] |  |  | 4.00 to 4.30 | > 100 |  |

| SMILES | pIC50 (HIV NL4.3 strain; analogs of TT-44863 (Table 2)) | CC50 ([1]; analogs of TT-44863 (Table 2)) [µM] | pIC50 (HIV NL4.3 strain; analogs of TT-44881 (Table 1)) | CC50 ([1]; analogs of TT-44881 (Table 1)) [µM] | also measured |
| --- | --- | --- | --- | --- | --- |
| O=C(NCCCN1CCCC1=O)c1c[nH]nc1C1CC1 [compound 46821] |  |  | < 4.00 | > 100 |  |
| N#Cc1c(NCCCN2CCCC2=O)c2ccccc2[nH]c1=O [compound 46822] |  |  | < 4.00 | > 100 |  |
| CCOC(=O)c1c(NCCCN2CCCC2=O)c2ccccc2[nH]c1=O [compound 46823] |  |  | < 4.00 | > 100 |  |
| Cc1cccc(-n2cc(C(=O)NCCCN3CCCC3=O)c3ccccc32)c1 [compound 46824] |  |  | < 4.00 | > 100 |  |
| O=C(NCCCN1CCCC1=O)c1c(-c2ccccc2)[nH]c2ccccc2c1=O [compound 46825] |  |  | < 4.00 | > 100 |  |
| O=C(NCCCN1CCCC1=O)c1n[nH]c2ccccc12 [compound 46826] |  |  | < 4.00 | > 100 |  |
| O=C(Nc1ccccc1)c1c(NCCCN2CCCC2=O)c2ccccc2[nH]c1=O [compound 46827] |  |  | < 4.00 | > 100 |  |
| COc1ccc(C#N)cc1NC(=O)Cn1cc(C(F)(F)F)cc(Cl)c1=O [compound 46828] | 4.00 to 4.30 | 50 to 100 |  |  |  |
| COc1ccc(F)cc1NC(=O)Cn1cc(C(F)(F)F)cc(Cl)c1=O [compound 46867] | 4.52 to 5.00 | 50 to 100 |  |  |  |
| COc1ccc(OC)c(NC(=O)Cn2cc(C(F)(F)F)cc(Cl)c2=O)c1 [compound 46868] | < 4.00 | > 100 |  |  |  |
| COc1ccc(C(F)(F)F)cc1CNC(=O)Cn1cc(C(F)(F)F)cc(Cl)c1=O [compound 46875] | < 4.00 | > 100 |  |  |  |
| O=C(NCCCN1CCCC1=O)c1cn(-c2ccccc2)c2ccccc12 [compound 46878] |  |  | 4.00 to 4.30 | > 100 |  |
| O=C(NCCCN1CCCC1=O)c1cn(-c2ccccc2)c2ncc(F)cc12 [compound 46879] |  |  | 4.30 to 6.00 | > 100 |  |
| O=C(NCCCN1CCCC1=O)c1cn(-c2ccccc2)c2ccc(F)cc12 [compound 46880] |  |  | 4.00 to 4.30 | 50 to 100 |  |
| O=C(NCCCN1CCCC1=O)c1nn(Cc2ccccc2)c2c1CCC2 [compound 46885] |  |  | < 4.00 | > 100 |  |
| COc1ccc(C(F)(F)F)cc1NC(=O)Cn1cc(C(F)(F)F)ccc1=O [compound 46917] | 4.52 to 6.00 | > 100 |  |  |  |
| Cc1cc(NCCCN2CCCC2=O)n2nc(C)nc2n1 [compound 46930] |  |  | < 4.00 | > 100 |  |
| O=C(NCCCN1CCCC1=O)c1nc2ccccc2[nH]c1=O [compound 46931] |  |  | 4.52 to 5.00 | > 100 |  |
| CCn1nc(C(=O)NCCCN2CCCC2=O)c2c1CCC2 [compound 46932] |  |  | < 4.00 | > 100 |  |
| O=C(NCCCN1CCCC1=O)c1nn(CC2CCC2)c2c1CCC2 [compound 46933] |  |  | < 4.00 | > 100 |  |
| O=C(NCCCN1CCCC1=O)c1nnc(-c2ccccc2)c2ccccc12 [compound 46934] |  |  | < 4.00 | > 100 |  |
| O=C(NCCCN1CCCC1=O)c1cnn(-c2ccccc2)c1 [compound 46935] |  |  | < 4.00 | > 100 |  |
| COc1ccc(C#N)cc1NC(=O)Cn1cc(C)cc(Cl)c1=O [compound 46946] | < 4.30 | > 50 |  |  |  |
| COc1ccc(C(F)(F)F)cc1CNC(=O)Cn1cc(C)cc(Cl)c1=O [compound 46957] | < 4.30 | > 50 |  |  |  |
| COc1ccc(C(F)(F)F)cc1CNC(=O)Cn1cc(C(F)(F)F)ccc1=O [compound 46960] | < 4.00 | > 100 |  |  |  |
| O=C(NCCCN1CCCC1=O)c1nn(-c2ccccc2)cc1C(F)(F)F [compound 46979] |  |  | 4.00 to 4.30 | > 100 |  |
